For this assay, the system named is Bsu PreQ1 RNA (MFS construct) (RNA, riboswitch) UCGGCGAUCUACGCAGCGACAUAAUAAGAGGUUCUAGCUACACCCUCUAUAAAAAACUAAUAACAACCACUUCCUAAUCUGUCAUCUUCUG
Description: magnetic force spectroscopy, fraction of high-force cycles. The following applies: 100 mM KCl, 1 mM MgCl2; 50 mM HEPES pH 7.4, 1% DMSO, 22 °C.

SMILES strings stand for the structures.

For the molecule `NCc1c[nH]c2nc(N)[nH]c(=O)c12`, the KD/EC50 stood at 58.8 ± 6.3 nM.

Values taken from publication PMC11408619 (2024).
